This note sets out measurements from PubChem BioAssay (NCI).

“And” between values parts separate entries of the source, which are not always exact repeats. Identical values can stand only once.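 How tested: cells in 96-well plates exposed to compound for 48 hours at five concentrations. GI50 = concentration required for 50% inhibition of growth. TGI: concentration producing complete growth inhibition.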

Test systems include IGROV1 ovarian; OVCAR-3 ovarian; CAKI-1 renal; A498 renal; SF-268 CNS; MCF7 breast; PC-3 prostate; OVCAR-5 ovarian; SW-620 colon; SK-MEL-28 melanoma.
Holding throughout (test): NCI-60 cell line screen, 48 h

Turning to `O=C(NCCN1CCC(O)CC1)c1cc2c(o1)C(=O)c1ccccc1C2=O`, the GI50 in the experiment with IGROV1 ovarian was 0.3 µM; with OVCAR-3 ovarian it was 0.242 µM; in the experiment on CAKI-1 renal, 1.28 µM; in the experiment with A498 renal it was 0.17 µM; with SF-268 CNS it was 1.27 µM; with MCF7 breast it was 0.137 µM. Besides, the GI50 is 0.294 µM in the experiment on PC-3 prostate, 0.212 µM with OVCAR-5 ovarian, 0.31 µM in the experiment on SW-620 colon and 0.549 µM in the experiment with SK-MEL-28 melanoma. In addition, the TGI in the experiment with IGROV1 ovarian turned out to be 1.02 µM; with OVCAR-3 ovarian, 0.658 µM; in the experiment with CAKI-1 renal, 2.66 µM; in the experiment with A498 renal it was 0.34 µM; with SF-268 CNS it was 3.55 µM; with MCF7 breast it was 0.338 µM. Also, the TGI with PC-3 prostate stood at 2.39 µM; with OVCAR-5 ovarian it was 0.384 µM; with SW-620 colon, 1.05 µM; in the experiment with SK-MEL-28 melanoma, 1.74 µM.

For `CCOC(=O)NC1=C(N2CC2)C(=O)C(NC(=O)OCC)=C(N2CC2)C1=O`, the GI50 in the experiment on IGROV1 ovarian is 8.21 µM and 7.5 µM; with OVCAR-3 ovarian it was 5.91 µM and 5.8 µM; in the experiment on CAKI-1 renal, 2.53 µM and 3.42 µM; in the experiment on A498 renal, 8.08 µM and 5.41 µM; with SF-268 CNS, 5.55 µM and 4.88 µM; with MCF7 breast it was 6.33 µM. For the same compound, the GI50 with OVCAR-5 ovarian is 19.9 µM and 7.01 µM; in the experiment with SW-620 colon it was 5.99 µM and 5.69 µM; in the experiment with SK-MEL-28 melanoma it was 22.3 µM and 16.6 µM. Moreover, the TGI with IGROV1 ovarian was 25 µM and 18.1 µM and 30.6 µM; in the experiment on OVCAR-3 ovarian, 17.4 µM and 12.9 µM and 16.1 µM; in the experiment with CAKI-1 renal it was 13.2 µM and 18.3 µM and 23.7 µM; in the experiment with A498 renal, 20.3 µM and 9.75 µM and 12.5 µM; with SF-268 CNS it was 25 µM and 20.7 µM and 26.9 µM; in the experiment on MCF7 breast, 25 µM and 21.3 µM. In addition, the TGI in the experiment on PC-3 prostate is 16.2 µM; in the experiment with OVCAR-5 ovarian it was 25 µM and 32.6 µM and 35.9 µM; with SW-620 colon, 24.6 µM and 26.1 µM and 19.2 µM; in the experiment with SK-MEL-28 melanoma, 25 µM and 42.4 µM and 54.4 µM.

In the case of `COc1c2c(c(CC=C(C)C)c3oc(=O)c(-c4ccc(O)cc4)c(O)c13)OC(C)(C)C=C2`, the TGI was 44.9 µM in the experiment on IGROV1 ovarian; 67.2 µM in the experiment on OVCAR-3 ovarian; greater than 100 µM in the experiment with CAKI-1 renal; greater than 100 µM in the experiment with A498 renal; 41 µM in the experiment with SF-268 CNS; 54.3 µM in the experiment with MCF7 breast. In addition, the TGI with PC-3 prostate was greater than 100 µM; in the experiment with OVCAR-5 ovarian, greater than 100 µM; in the experiment with SW-620 colon it was greater than 100 µM; in the experiment on SK-MEL-28 melanoma it was 73 µM.

For the compound `CCOc1ccc2nc(-c3cccc(OCC(=O)NC(C)C)c3)nc(Nc3ccc(-c4cn[nH]c4)cc3)c2c1`, the GI50 in the experiment with IGROV1 ovarian was 0.927 µM; in the experiment with OVCAR-3 ovarian it was 1.34 µM; in the experiment with CAKI-1 renal it was 0.968 µM; in the experiment with A498 renal, 2.54 µM; in the experiment with SF-268 CNS it was 1.35 µM; in the experiment with MCF7 breast it was 0.348 µM. The GI50 was 0.348 µM in the experiment on PC-3 prostate, 3.3 µM with OVCAR-5 ovarian, 1.35 µM in the experiment on SW-620 colon and 1.13 µM in the experiment with SK-MEL-28 melanoma. Further, the TGI was determined as 7.4 µM with IGROV1 ovarian; 3.12 µM in the experiment on OVCAR-3 ovarian; 3.87 µM with CAKI-1 renal; 9.85 µM in the experiment with A498 renal; 7 µM in the experiment with SF-268 CNS; 2.11 µM in the experiment with MCF7 breast. The TGI with PC-3 prostate came to 2 µM; in the experiment with OVCAR-5 ovarian, 21.9 µM; in the experiment with SW-620 colon, 5.99 µM; in the experiment on SK-MEL-28 melanoma, 3 µM.

On to `C[n+]1c2ccccc2c(Nc2ccc(NS(=O)(=O)CCCCN=C(N)N)cc2)c2ccc(N)cc21`, for which the GI50 with IGROV1 ovarian was 2.92 µM; with OVCAR-3 ovarian it was 10.2 µM; with CAKI-1 renal, 10.1 µM; in the experiment with A498 renal, 0.32 µM; with SF-268 CNS, 2.16 µM; in the experiment with MCF7 breast, 0.0429 µM. Moreover, the GI50 with PC-3 prostate was 8.47 µM; in the experiment on OVCAR-5 ovarian, 41.8 µM; in the experiment with SW-620 colon, 4.88 µM; with SK-MEL-28 melanoma, 11.2 µM. The TGI in the experiment on IGROV1 ovarian is greater than 100 µM; with OVCAR-3 ovarian, greater than 80.2 µM; with CAKI-1 renal, greater than 100 µM; in the experiment with A498 renal, 31.4 µM; with SF-268 CNS, greater than 85.5 µM; in the experiment on MCF7 breast it was greater than 81.2 µM. For the same compound, the TGI in the experiment with PC-3 prostate was greater than 100 µM; with OVCAR-5 ovarian, greater than 100 µM; with SW-620 colon, greater than 100 µM; in the experiment with SK-MEL-28 melanoma it was greater than 72.3 µM.

For the compound `Fc1cccc(CSc2ncnc3c2ncn3C2CCCS2)c1` (centres undefined), the TGI is greater than 100 µM in the experiment on IGROV1 ovarian; 35.6 µM in the experiment with OVCAR-3 ovarian; greater than 100 µM in the experiment with CAKI-1 renal; 41.8 µM in the experiment on A498 renal; greater than 100 µM in the experiment with SF-268 CNS; 63.7 µM in the experiment with MCF7 breast. For the same compound, the TGI in the experiment on PC-3 prostate was greater than 100 µM; with OVCAR-5 ovarian it was greater than 100 µM; with SW-620 colon, greater than 100 µM; with SK-MEL-28 melanoma, 50.8 µM.

Take `CC1(C)N=C(N)N=C(N)N1c1ccc(CCc2ccc(Cl)cc2S(=O)(=O)F)c(Cl)c1`: the GI50 was 0.942 µM in the experiment with IGROV1 ovarian; 4.82 µM in the experiment with OVCAR-3 ovarian; greater than 100 µM in the experiment with CAKI-1 renal; 62.8 µM with A498 renal; 4.21 µM in the experiment with SF-268 CNS; 3.64 µM with MCF7 breast. Moreover, the GI50 in the experiment on PC-3 prostate was 6.62 µM; in the experiment with OVCAR-5 ovarian it was 4.76 µM; with SW-620 colon it was 2.66 µM; with SK-MEL-28 melanoma, 7.99 µM. Further, the TGI in the experiment on IGROV1 ovarian was greater than 100 µM; with OVCAR-3 ovarian, 21.4 µM; in the experiment with CAKI-1 renal, greater than 100 µM; with A498 renal, greater than 100 µM; with SF-268 CNS, 53.5 µM; in the experiment on MCF7 breast, 18.9 µM. Also, the TGI was greater than 100 µM in the experiment on PC-3 prostate, greater than 100 µM in the experiment with OVCAR-5 ovarian, 17.7 µM with SW-620 colon and 23.4 µM with SK-MEL-28 melanoma.
